Non-standard residues stand in square brackets, D forms with d. No end group written: not given here. pS = N[C@@H](COP(=O)(O)O)C(=O)O
Tested on: phosphopeptide-specific CTL
Test: Recognition of naturally processed phosphopeptides on cancer cell lines by phosphopeptide-specific CTL (murine IFNγ ELISA)
Type: cell-based
Settings: 24 hours with COV413.AAD.A4, DM331.AAD.A4, SLM2.AAD.A1, MCF7.AAD.A2, MDAMB231.AAD cancer lines and JY EBV-BLCL control
Experimental: FIG. 1, comprising FIGS. 1A and 1B, is a graphic illustration of the recognition of naturally processed and presented phosphorylated peptides on cancer cells by the phosphopeptide-specific CTL. Phosphopeptide-specific CTL were incubated with the following cancer cell lines or EBV-transformed B lymphoblastoid cell lines (BLCL): COV413.AAD.A4 ovarian carcinoma, DM331.AAD.A4 and SLM2.AAD.A1 melanomas, MCF7.AAD.A2 and MDAMB231.AAD breast carcinomas, and JY EBV-BLCL. Supernatants were harvested and evaluated for the presence of murine IFNγ (produced by murine CTL lines). […] The ordinate indicates murine IFNγ in pg/ml. The abscissa indicates each cell line.
CTL specific for two of the antigen peptides were generated by long term culture with the peptides. Two CTL lines specific for the antigen peptide GLLGpSPVRA, lines 6850 and 6960, SEQ ID NO: 13, and two CTL lines specific for the antigen peptide RVApSPTSGV, SEQ ID NO: 14, lines 5183 and 63 were used to detect these two antigen peptides on cancer cells. […] Supernatants were harvested 24 hours later and evaluated for the presence of murine IFN[…] (produced by murine CTL lines) by ELISA (eBioscience Ready-Set-go murine IFN[…] ELISA kit).

| Substance | recognition of the phosphopeptide on cell lines by phosphopeptide-specific CTL (murine IFNγ in supernatant) (CTL lines 6850 and 6960, FIG. 1A) | recognition of the phosphopeptide on cell lines by phosphopeptide-specific CTL (murine IFNγ in supernatant) (CTL lines 5183 and 63, FIG. 1B) |
| --- | --- | --- |
| GLLGpSPVRA (GLLG[pS]PVRA; listed as Homo sapiens) [phosphopeptide from CDC25b:p63, HLA-A2.1] | recognize the phosphopeptide on all the cancer cell lines, but not the control cell line | – |
| RVApSPTSGV (RVA[pS]PTSGV; listed as Homo sapiens) [phosphopeptide from Insulin receptor substrate-2, HLA-A2.1] | – | recognize the phosphopeptide on all the cancer cell lines, but not the control cell line |

Source: patent US10640535B2, “Identification of MHC class I phospho-peptide antigens from breast cancer utilizing SHLA technology and complementary enrichment strategies” (Agenus Inc., priority 2012, dated 2020)
